Measurements as given in patent US20260193258A1, “AGENT FOR PROMOTING PHOSPHORYLATION OF eIF2a” (ER Stress Research Institute, Inc., priority 2019, published 2026).

Key:
eIF2α = eIF2α phosphorylation-promoting activity (western blotting of 293A cell lysates); assay type: cell-based; settings: 293A cells, 16 hours at 37° C., Compound No. 1 at 5 μM, halofuginone at 50 nM, thapsigargin at 200 nM, FIG. 3
Protocol: • Host cells: 293A cells • Evaluation compound: Compound No. 1 of the present invention was used, and […] thereof was dissolved in 20 μL of DMSO to prepare a 20 mM solution. • Thapsigargin: (Cayman Chemical Company)
10 mg was dissolved in 76.8 mL of DMSO to prepare a 200 μM solution. • Halofuginon: (Cayman Chemical Company)
5 mg was dissolved in 554.2 μL of DMSO to prepare a 20 mM solution.
The above-mentioned 293A cells were seeded in a 96-well plate at 5×10^5 cells/well, and were cultured overnight in a DMEM solution of 10% fetal bovine serum (FBS). The next day, the medium was changed to a DMEM solution of 10% fetal bovine serum (FBS) containing Compound No. 1 at 5 μM, halofuginone at 50 nM, or thapsigargin at 200 nM, and the cells were cultured at 37° C. for 16 hours. After the cells had been washed with a PBS buffer, the cells were lysed with a RIPA buffer to extract proteins, and the proteins were separated according to size by an electrophoresis method of SDS-PAGE. The expression amount of an endoplasmic reticulum stress marker was measured by a western blotting method.

human topoisomerase I = molecular target: T1, human topoisomerase I (Homo sapiens, UniProt P11387); assay: Human topoisomerase I DNA relaxation assay (ProFoldin kit); assay type: biochemical; settings: 5 μL of evaluation sample solution (100 μM), fluorescence 485/535 nm, FIG. 4
T1 construct: purchased ProFoldin HRA100KE
T1 sequence (P11387 1-765): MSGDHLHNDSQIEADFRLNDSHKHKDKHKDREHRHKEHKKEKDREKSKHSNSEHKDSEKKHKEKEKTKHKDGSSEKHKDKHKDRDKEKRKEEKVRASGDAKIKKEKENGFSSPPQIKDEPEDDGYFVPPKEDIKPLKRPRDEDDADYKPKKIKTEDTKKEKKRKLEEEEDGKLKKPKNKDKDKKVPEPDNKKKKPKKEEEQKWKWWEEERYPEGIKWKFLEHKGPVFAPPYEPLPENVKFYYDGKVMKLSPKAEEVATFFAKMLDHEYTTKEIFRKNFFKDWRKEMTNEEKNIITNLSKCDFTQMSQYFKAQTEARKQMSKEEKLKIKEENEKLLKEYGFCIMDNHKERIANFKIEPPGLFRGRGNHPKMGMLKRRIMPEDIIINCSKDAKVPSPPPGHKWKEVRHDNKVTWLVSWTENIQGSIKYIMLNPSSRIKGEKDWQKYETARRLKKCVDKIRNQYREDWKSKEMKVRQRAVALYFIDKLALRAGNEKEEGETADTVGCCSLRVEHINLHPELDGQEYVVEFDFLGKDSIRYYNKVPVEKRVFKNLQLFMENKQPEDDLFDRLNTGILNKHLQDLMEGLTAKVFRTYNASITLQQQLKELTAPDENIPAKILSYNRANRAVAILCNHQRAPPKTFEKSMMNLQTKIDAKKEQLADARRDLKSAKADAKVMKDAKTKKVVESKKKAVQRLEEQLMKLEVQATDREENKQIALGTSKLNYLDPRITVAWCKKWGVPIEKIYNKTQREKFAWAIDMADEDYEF
Protocol: (§1) • Evaluation compound: Compound No. 1 of the present invention was used, and […] thereof was dissolved in 20 μL of DMSO to prepare a 20 mM solution. • Camptothecin: (FUJIFILM Wako Pure Chemical Corporation) 100 mg was dissolved in 57.4 mL of DMSO to prepare a 5 mM solution. • Etoposide: (FUJIFILM Wako Pure Chemical Corporation) 25 mg was dissolved in 424.8 μL of DMSO to prepare a 100 mM solution. • Human topoisomerase I/DNA relaxation assay kit […] (Manufactured by ProFoldin) • Human topoisomerase II/DNA relaxation assay kit HD[…] (Manufactured by ProFoldin) Measurement was performed in accordance with an instruction manual of ProFoldin. […] After the reaction, centrifugation was performed at 1,300 rpm for 30 seconds, and the reaction liquid was poured into a spin-column. The spin-column was rotated at 1,300 rpm for 2 minutes, and the liquid that had flowed out of the column was poured into a 96-well black plate. The liquid that had flowed out was subjected to a reaction by adding a fluorescent dye solution (up to 150 μL). The intensity of fluorescence excited with light at 485 nm was measured at 535 nm.

human topoisomerase II = assay: Human topoisomerase II DNA relaxation assay (ProFoldin kit); assay type: biochemical; settings: 5 μL of evaluation sample solution (100 μM), fluorescence 485/535 nm, FIG. 4
Protocol: as §1

mouse naive CD4+ T cells = assay: Th17 cell differentiation-suppressing activity (flow cytometry); assay type: cell-based; settings: Compound No. 1 at 5 μM, halofuginone at 50 nM, 5 days of differentiation culture, FIG. 5
Protocol: Evaluation compound: Compound No. 1 of the present invention was used, and […] thereof was dissolved in 20 μL of DMSO to prepare a 20 mM solution. • Halofuginon: (Cayman Chemical Company)
5 mg was dissolved in 554.2 μL of DMSO to prepare a 20 mM solution. • Th17 cell inducer: A Th17 cell differentiation induction kit containing IL-6 and TGFβ1 as main components (CellXVivo Mouse Th17 Cell Differentiation Kit: R&D Systems) • Mouse helper T cell differentiation induction kit CDK017 (Techne Corporation)
Measurement was performed in accordance with an instruction manual of Techne Corporation. First, a cell culture plate was coated with an anti-hamster CD3 antibody. Mouse spleen cells were isolated into single cells, and mouse naive CD4^+ T cells were isolated using a mouse naive CD4^+ T cell isolation kit (MagCellect). The number of cells was counted. The isolated mouse naive CD4^+ T cells were dispersed in a mouse Th17 differentiation medium at 1×10^6 cells/mL. Compound No. 1 and halofuginone were added to the mouse Th17 differentiation medium at 5 μM and 50 nM, respectively. Next, the medium having the cells dispersed therein was added to the plate coated with the anti-hamster CD3 antibody, and humidified culture was continued for 3 days at 37° C. in the presence of 5% CO2. On the 3rd day, the medium was refreshed by adding an equal amount of the mouse Th17 differentiation medium without removing the original culture medium. Humidified culture was continued for 2 days at 37° C. in the presence of 5% CO2. After the 5 days of differentiation culture, the differentiated mouse Th17 cells were subjected to flow cytometry to analyze the expression of cytokines, and the number of cells differentiated into Th17 cells was determined.

Compound | eIF2α phosphorylation-promoting effect (phosphorylated eIF2α expression amount) (eIF2α) | topoisomerase-inhibiting activity, human topoisomerase I (human topoisomerase I) | topoisomerase-inhibiting activity, human topoisomerase II (human topoisomerase II) | suppression of differentiation from mouse naive CD4+ T cells into Th17 cells (mouse naive CD4+ T cells) | also measured
1-(2-chloro-5-methylphenyl)-4-oxo-7-(4-pyridyl)-naphthyridine [Compound No. 1] | had an eIF2α phosphorylation-promoting effect | did not show topoisomerase-inhibiting activity | did not show topoisomerase-inhibiting activity | remarkably suppressed differentiation | eIF2α phosphorylation-promoting effect (phosphorylated eIF2α expression amount) (eIF2α; listed as No. 1): eIF2α phosphorylation-promoting effect; topoisomerase-inhibiting activity, human topoisomerase I (human topoisomerase I; listed as No. 1): free of topoisomerase-inhibiting activity; topoisomerase-inhibiting activity, human topoisomerase II (human topoisomerase II; listed as No. 1): free of topoisomerase-inhibiting activity; suppression of differentiation from mouse naive CD4+ T cells into Th17 cells (mouse naive CD4+ T cells; listed as No. 1): has Th17 cell differentiation-suppressing activity
O=C(CC1NCCCC1O)Cn1cnc2cc(Br)c(Cl)cc2c1=O (stereo not shown) [halofuginone, reference compound] | eIF2α phosphorylation-promoting effect | – | – | capable of inhibiting the induction of differentiation into Th17 cells | –
CC[C@@]1(O)C(=O)OCc2c1cc1n(c2=O)Cc2cc3ccccc3nc2-1 [camptothecin, reference compound] | – | remarkably reduced topoisomerase I activity | – | – | –
COc1cc([C@@H]2c3cc4c(cc3[C@@H](O[C@@H]3O[C@@H]5CO[C@@H](C)O[C@H]5[C@H](O)[C@H]3O)[C@H]3COC(=O)[C@H]23)OCO4)cc(OC)c1O [etoposide, reference compound] | – | – | remarkably reduced topoisomerase II activity | – | –
C/C=C(/C)C(=O)O[C@H]1C(C)=C2[C@H]([C@@H]1OC(=O)CCCCCCC)[C@@](C)(OC(C)=O)C[C@H](OC(=O)CCC)[C@@]1(O)[C@H]2OC(=O)[C@@]1(C)O [thapsigargin, reference compound] | eIF2α phosphorylation-promoting effect | – | – | – | –
